Measured values taken from the supplement of paper PMC10307832.

Legend:
Test in all cases: relative viability (nuclei count vs DMSO), 5 days (fraction); higher = more cells survive
Darinaparsin + Foretinib = compound: C[As](C)SC[C@H](NC(=O)CC[C@H](N)C(=O)O)C(=O)NCC(=O)O [Darinaparsin] + COc1cc2c(Oc3ccc(NC(=O)C4(C(=O)Nc5ccc(F)cc5)CC4)cc3F)ccnc2cc1OCCCN1CCOCC1 [Foretinib] (partner 0.25 µM)
Procedure, shortened: (§1)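 Cells from lung cancer lines were seeded into 1536-well plates and, one day later, dosed by pin tool. Treatments were either a single drug or a fixed dose of an anchor drug with five library-drug doses (not always all listed) in √10 steps. After 5 days, nuclei were stained in a one-step fixation (final 0.05% Triton X-100, 1% formaldehyde, 1 ug/ml Hoechst) and counted on 4× images, and relative viability is the treated-to-vehicle nuclei ratio, as the median of duplicate plates.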

QS11 + Foretinib = compound: C1CC2=C(C1)C=C(C=C2)OC3=NC(=C4C(=N3)N(C=N4)CC5=CC=C(C=C5)C6=CC=CC=C6)N[C@@H](CC7=CC=CC=C7)CO [QS11] + COc1cc2c(Oc3ccc(NC(=O)C4(C(=O)Nc5ccc(F)cc5)CC4)cc3F)ccnc2cc1OCCCN1CCOCC1 [Foretinib] (partner 0.25 µM)
Procedure, shortened: as §1

QS11 + Trametinib = compound: C1CC2=C(C1)C=C(C=C2)OC3=NC(=C4C(=N3)N(C=N4)CC5=CC=C(C=C5)C6=CC=CC=C6)N[C@@H](CC7=CC=CC=C7)CO [QS11] + CC(=O)Nc1cccc(-n2c(=O)n(C3CC3)c(=O)c3c(Nc4ccc(I)cc4F)n(C)c(=O)c(C)c32)c1 [Trametinib] (partner 0.02 µM)
Procedure, shortened: as §1

QS11 + Tozasertib = compound: C1CC2=C(C1)C=C(C=C2)OC3=NC(=C4C(=N3)N(C=N4)CC5=CC=C(C=C5)C6=CC=CC=C6)N[C@@H](CC7=CC=CC=C7)CO [QS11] + Cc1cc(Nc2cc(N3CCN(C)CC3)nc(Sc3ccc(NC(=O)C4CC4)cc3)n2)n[nH]1 [Tozasertib] (partner 0.1 µM)
Procedure, shortened: as §1

Cell Line | relative viability (Darinaparsin + Foretinib; first compound 0.08 µM) | relative viability (Darinaparsin + Foretinib; first compound 0.8 µM) | relative viability (Darinaparsin + Foretinib; first compound 2.53 µM) | relative viability (Darinaparsin + Foretinib; first compound 8 µM) | relative viability (QS11 + Foretinib; first compound 0.08 µM) | relative viability (QS11 + Foretinib; first compound 0.253 µM) | relative viability (QS11 + Foretinib; first compound 0.8 µM) | relative viability (QS11 + Foretinib; first compound 2.53 µM) | relative viability (QS11 + Foretinib; first compound 8 µM) | relative viability (QS11 + Trametinib; first compound 0.08 µM) | relative viability (QS11 + Trametinib; first compound 0.253 µM) | relative viability (QS11 + Trametinib; first compound 0.8 µM) | relative viability (QS11 + Trametinib; first compound 2.53 µM) | relative viability (QS11 + Trametinib; first compound 8 µM) | relative viability (QS11 + Tozasertib; first compound 0.08 µM) | relative viability (QS11 + Tozasertib; first compound 0.253 µM) | relative viability (QS11 + Tozasertib; first compound 0.8 µM) | relative viability (QS11 + Tozasertib; first compound 2.53 µM) | relative viability (QS11 + Tozasertib; first compound 8 µM)
NCI-H1793 | 0.766 | 0.77 | 0.524 | 0.829 | 0.796 | 0.657 | 0.767 | 0.573 | 0.935 | 0.491 | 0.392 | 0.408 | 0.469 | 0.759 | 0.305 | 0.328 | 0.257 | 0.32 | 0.338
HARA | 0.944 | 0.927 | 0.712 | 0.938 | 0.841 | 0.933 |  | 0.944 | 1.2 | 0.652 |  | 0.562 | 0.48 | 0.634 | 0.0847 | 0.117 |  | 0.0916 | 0.102
NCI-H2347 | 0.859 | 1.01 | 0.994 | 1.05 | 0.825 | 1.18 | 1.01 | 0.942 | 0.994 | 0.27 | 0.292 | 0.273 | 0.313 | 0.286 | 0.434 | 0.523 | 0.51 | 0.436 | 0.572
ABC-1 | 1.36 | 0.995 | 1.18 | 1.08 | 0.912 | 1.06 | 1.06 | 1.08 | 1.32 |  |  |  |  |  | 0.191 | 0.157 | 0.174 | 0.168 | 0.183
NCI-H2342 | 0.959 | 1.04 | 1.03 | 1.17 | 1.02 | 1.07 | 1.07 | 1.02 | 1.19 | 0.775 | 0.769 | 0.838 | 0.88 | 0.743 | 0.479 | 0.46 | 0.62 | 0.474 | 0.436
NCI-H2126 | 1.17 | 1.1 | 1.05 | 1.13 | 1.18 | 1.22 | 1.07 | 1.1 | 1.04 | 0.588 | 0.562 | 0.567 | 0.596 | 0.508 | 0.803 | 0.849 | 0.817 | 0.886 | 0.795
HOP-62 | 1.2 | 1.16 | 0.969 | 1.13 | 1.11 | 1.33 | 0.766 | 0.742 | 0.708 | 0.373 | 0.393 | 0.38 | 0.357 | 0.42 | 0.363 | 0.442 | 0.31 | 0.281 | 0.302
NCI-H2085 | 1.12 | 0.975 | 0.863 | 0.902 | 1.01 | 0.886 | 0.911 | 1.02 | 1 | 0.512 | 0.483 | 0.43 | 0.513 | 0.508 | 0.803 | 0.77 | 0.479 | 0.531 | 0.467
NCI-H1944 | 0.917 | 0.898 | 0.731 | 0.995 | 0.886 | 0.967 |  | 0.641 | 0.671 | 0.423 | 0.4 |  | 0.349 | 0.353 | 0.258 | 0.274 |  | 0.271 | 0.24
EMC-BAC-2 | 1.08 | 0.958 | 1.01 | 1.16 | 1.03 | 1.02 | 0.857 | 0.652 | 0.622 | 0.814 | 0.954 | 0.573 | 0.885 | 0.804 | 0.297 | 0.292 | 0.279 | 0.274 | 0.238
NCI-H2228 | 1.42 | 0.935 | 0.949 | 0.891 | 0.835 | 0.827 | 0.755 | 1 | 1.03 | 0.483 | 0.392 | 0.507 | 0.788 | 0.547 | 0.195 | 0.241 | 0.309 | 0.296 | 0.289
A-427 | 1.35 | 1.15 | 0.989 | 1.32 | 1.13 | 1.15 |  | 1.22 | 1.17 | 0.778 | 0.78 |  | 0.805 | 0.767 | 0.21 | 0.207 |  | 0.209 | 0.201
EPLC-272H |  | 0.658 | 0.619 | 0.814 |  | 0.817 | 0.64 | 0.677 | 0.692 |  | 0.32 | 0.3 | 0.28 | 0.3 |  | 0.17 | 0.258 | 0.248 | 0.292
A549 | 1.27 | 0.991 | 0.896 | 1.41 | 0.911 | 0.883 | 0.697 | 0.918 | 0.917 |  |  |  |  |  |  |  |  |  | 
NCI-H358 | 0.758 | 0.693 | 0.648 | 0.799 | 0.596 | 0.777 | 1 | 0.936 | 0.52 | 0.117 | 0.136 | 0.167 | 0.153 | 0.157 | 0.099 | 0.106 | 0.108 | 0.101 | 0.109
NCI-H2009 | 0.435 | 1.18 | 1.15 | 1.33 | 1.24 | 1.24 | 1.09 | 0.98 | 1.11 | 0.242 | 0.32 | 0.24 | 0.279 | 0.256 | 0.756 | 0.789 | 0.595 | 0.58 | 0.434
HCC-827 | 1.16 | 1.09 | 1.02 | 1.06 | 1.05 | 1.05 | 0.8 | 1.02 | 0.812 | 0.507 | 0.559 | 0.595 | 0.698 | 0.557 | 0.389 | 0.416 | 0.315 | 0.433 | 0.457
NCI-H322M | 1.04 | 1.04 | 0.826 | 1.02 | 1.06 | 1.04 | 1.06 | 1.09 | 1.44 | 0.547 | 0.543 | 0.565 | 0.582 | 0.513 | 0.479 | 0.479 | 0.45 | 0.545 | 0.64
